Among the test systems are 786-0; M19-MEL; RPMI-8226; NCI-H460; NCI-H23; UO-31; OVCAR-3; SN12C; OVCAR-8; KM12; CCRF-CEM; IGROV-1; HOP-92; SK-MEL-2; HCT-15; MDA-N; NCI-H226; Hs-578T; MCF7; DMS-114.
What all share (assay): NCI-60 cell line screen, 48 h

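Exposure lasted 48 hours, with cells grown in 96-well plates and compounds tested at five concentrations. GI50 marks 50% less growth.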 Activity calls are given as the source filed them. Rule as the data show it: active = GI50 up to about 1.1 µM and inactive = higher.

Turning to `O=C(O[C@H]1[C@@H]2C=CO[C@@H](OC3OC(CO)C(O)C(O)C3O)[C@@H]2[C@@]2(CO)O[C@@H]12)c1ccc(O)c(O)c1` (stereo partly drawn), the GI50 in the assay with 786-0, in the assay with M19-MEL, with RPMI-8226, in the assay with NCI-H460, with NCI-H23 and in the assay with UO-31 was > 100 µM (inactive) throughout. For the same molecule, the GI50 in the assay with OVCAR-3, in the assay with SN12C, with OVCAR-8, in the assay on KM12, with CCRF-CEM and with IGROV-1 was > 100 µM (inactive) throughout. Besides, the GI50 in the assay with HOP-92 and with SK-MEL-2 was > 100 µM (inactive) in each case.

As for `O=C(Cc1cc(=O)oc2cc(O)ccc12)N/N=C/c1ccc(N(CCCl)CCCl)cc1`, the GI50 in the assay with 786-0 is 18.8 µM (inactive); with HCT-15, above 100 µM; in the assay on RPMI-8226, 16.4 µM (inactive); with NCI-H460, 13.8 µM (inactive); in the assay on NCI-H23 it was 22.3 µM (inactive); in the assay with UO-31, 22.2 µM (inactive). For the same molecule, the GI50 was 18.2 µM (inactive) with OVCAR-3; 17.7 µM (inactive) in the assay on SN12C; 15.1 µM (inactive) in the assay on OVCAR-8; 23.4 µM (inactive) in the assay on MDA-N; 32.4 µM (inactive) in the assay on KM12; 15 µM (inactive) in the assay with CCRF-CEM. Moreover, the GI50 in the assay on NCI-H226 was 17.7 µM (inactive); in the assay on IGROV-1 it was 18.8 µM (inactive); in the assay on HOP-92, 20.8 µM (inactive); with SK-MEL-2, > 100 µM (inactive); in the assay with Hs-578T, 26.1 µM (inactive); with MCF7, 14.8 µM (inactive).

As to `CC(C)=CCC[C@@H](C)C1=C(O)C(=O)C(C)=C(Nc2ccccc2I)C1=O`, the GI50 with 786-0 is 13.5 µM (inactive); with HCT-15 it was 6.56 µM; with RPMI-8226 it was 9.1 µM (inactive); in the assay on NCI-H460, 10.1 µM (inactive); in the assay on NCI-H23, 6.05 µM (inactive); with UO-31 it was 10.1 µM (inactive). Moreover, the GI50 is 4.6 µM (inactive) in the assay with OVCAR-3; 16.7 µM (inactive) with SN12C; 3.08 µM (inactive) in the assay on OVCAR-8; 21.2 µM (inactive) in the assay on MDA-N; 7.55 µM (inactive) in the assay with KM12; 3.03 µM (inactive) in the assay with CCRF-CEM. Also, the GI50 in the assay with NCI-H226 was 5.42 µM (inactive); with IGROV-1 it was 3.41 µM (inactive); in the assay with HOP-92, 14.5 µM (inactive); with SK-MEL-2 it was 10.8 µM (inactive); in the assay with Hs-578T, 9.12 µM (inactive); in the assay on MCF7, 23.2 µM (inactive).

For the molecule `S=C(NCc1ccccc1)N/N=C/c1ccccn1`, the GI50 is 1.59 µM (inactive) in the assay on 786-0; 1.26 µM in the assay with HCT-15; 0.118 µM (active) in the assay on RPMI-8226; 2.04 µM (inactive) in the assay on NCI-H460; 3.56 µM (inactive) with NCI-H23; 1.25 µM (inactive) in the assay with UO-31. The GI50 in the assay on OVCAR-3 was 0.222 µM (active); with SN12C it was 4.31 µM (inactive); in the assay with OVCAR-8, 1.15 µM (inactive); in the assay with MDA-N, 8.53 µM (inactive); with KM12 it was 4.91 µM (inactive); in the assay on CCRF-CEM, < 0.0409 µM (active). In addition, the GI50 is 2.01 µM (inactive) in the assay on NCI-H226; 1.58 µM (inactive) in the assay on IGROV-1; 2.21 µM (inactive) in the assay on HOP-92; 14.1 µM (inactive) in the assay with SK-MEL-2; 14.8 µM (inactive) with Hs-578T; 0.834 µM (active) with MCF7.

In the case of `O=C1CCCC/C1=C/C=C/c1ccccc1`, the GI50 in the assay with 786-0 is > 100 µM (inactive); with M19-MEL, 50.9 µM (inactive); in the assay with RPMI-8226, 32.5 µM (inactive); in the assay with NCI-H460, > 100 µM (inactive); in the assay with NCI-H23 it was 51.4 µM (inactive); in the assay on UO-31, 44.4 µM (inactive). In addition, the GI50 with OVCAR-3 is 66.4 µM (inactive); in the assay on SN12C, > 100 µM (inactive); in the assay with OVCAR-8, 84.1 µM (inactive); in the assay on KM12, 42.2 µM (inactive); in the assay with CCRF-CEM it was 34.6 µM (inactive); in the assay on NCI-H226, > 100 µM (inactive). Moreover, the GI50 with IGROV-1 is > 100 µM (inactive); with HOP-92, 58.5 µM (inactive); in the assay with SK-MEL-2, > 100 µM (inactive).

As for `CCC(=O)OCc1ccc2oc(=O)c(C(=O)Oc3cncc(Cl)c3)cc2c1`, the GI50 in the assay with 786-0 was 74.1 µM (inactive); in the assay on HCT-15 it was 44 µM; with RPMI-8226, > 100 µM (inactive); in the assay with NCI-H460, > 100 µM (inactive); in the assay with NCI-H23, 52.2 µM (inactive); with UO-31, 83.8 µM (inactive). Also, the GI50 with OVCAR-3 was > 100 µM (inactive); in the assay with SN12C, 42.7 µM (inactive); in the assay with OVCAR-8, > 100 µM (inactive); in the assay on MDA-N, > 100 µM (inactive); in the assay with KM12 it was > 100 µM (inactive); with CCRF-CEM, < 0.01 µM (active). Also, the GI50 with NCI-H226 was > 100 µM (inactive); in the assay on IGROV-1 it was > 100 µM (inactive); in the assay with HOP-92 it was 63.2 µM (inactive); with SK-MEL-2, > 100 µM (inactive); in the assay with Hs-578T it was > 100 µM (inactive); in the assay with MCF7, 76.4 µM (inactive).

Regarding `CC(=O)NNc1nc(C)c(C(=O)/C=C/c2ccc(N(C)C)cc2)s1`, the GI50 was > 100 µM (inactive) in the assay with 786-0; above 100 µM in the assay with HCT-15; > 100 µM (inactive) with RPMI-8226; > 100 µM (inactive) with NCI-H460; > 100 µM (inactive) in the assay on NCI-H23; > 100 µM (inactive) with UO-31. Moreover, the GI50 in the assay on OVCAR-3, in the assay on DMS-114, with SN12C, with OVCAR-8, with KM12 and in the assay with CCRF-CEM was > 100 µM (inactive) throughout. Further, the GI50 in the assay with NCI-H226, with IGROV-1, in the assay on HOP-92 and in the assay on SK-MEL-2 was > 100 µM (inactive) throughout.

As to `Cc1ccc2c(c1)C(=O)C(Cc1ccccc1C(=O)O)C2` (stereo not drawn), the GI50 with 786-0 was > 100 µM (inactive); in the assay with HCT-15, above 100 µM; with RPMI-8226, > 100 µM (inactive); in the assay with NCI-H460, > 100 µM (inactive); in the assay with NCI-H23 it was > 100 µM (inactive); with UO-31 it was > 100 µM (inactive). Besides, the GI50 in the assay on OVCAR-3, in the assay on SN12C, in the assay on OVCAR-8, in the assay on MDA-N, in the assay with KM12 and with CCRF-CEM was > 100 µM (inactive) each time. Besides, the GI50 in the assay with NCI-H226, with IGROV-1, in the assay on HOP-92, in the assay on SK-MEL-2, in the assay with Hs-578T and in the assay on MCF7 was > 100 µM (inactive) each time.

In the case of `O=C(/C=C/c1ccccc1)Oc1ccc(C(=O)/C=C/c2ccccc2)cc1`, the GI50 in the assay on 786-0 is 6.53 µM (inactive); in the assay with HCT-15, 4.29 µM; with RPMI-8226, 3.25 µM (inactive); with NCI-H460, 8.87 µM (inactive); with NCI-H23, 10.6 µM (inactive); with UO-31, 10.4 µM (inactive). Besides, the GI50 is 10.3 µM (inactive) in the assay on OVCAR-3; 10.3 µM (inactive) with SN12C; 10.2 µM (inactive) in the assay with OVCAR-8; 6.3 µM (inactive) with MDA-N; 5.4 µM (inactive) with KM12; 3.3 µM (inactive) in the assay with CCRF-CEM. For the same molecule, the GI50 was 34.4 µM (inactive) with NCI-H226; 11.5 µM (inactive) in the assay on IGROV-1; 17.1 µM (inactive) with HOP-92; 22.4 µM (inactive) in the assay on SK-MEL-2; 23.3 µM (inactive) in the assay on Hs-578T; 6.08 µM (inactive) in the assay on MCF7.

The values are drawn from ChEMBL document CHEMBL1201862, “PubChem BioAssay data set” (2004).
